Assay results reported in patent US12202805B2, “Process for preparing (5S)-{[2-(4-carboxyphenyl)ethyl] |2-(2-{|3-chloro-4'-(trifluoromethyl)biphenyl-4-yl]methoxy}phenyl)ethyl]aminol-5,6,7,8-tetrahydroquinoline-2-carboxylic acid and its crystalline forms for use as pharmaceutically active compound” (Bayer Aktiengesellschaft, priority 2021, dated 2025).

Tests used:
sGC = experiment: E-2.1 inhalative administration in healthy male subjects for 7 days: cGMP in blood samples; format: in vivo, human
Description: E-2.1 Inhalative Administration of sGC Activators in Healthy Male Subjects for 7 Days—cGMP and Bronchodilatation
(§1) Healthy White male subjects, aged 18 to 45 years and with a body mass index (BMI) above/equal 18.5 and below/equal 29.9 kg/m2 were treated in a clinical pharmacological phase I study on seven days with inhaled once daily doses of 480 μg or 1000 μg or 2000 μg (2 capsules of 1000 μg) (nominal dose) of dry powder formulations comprising example 2 or Placebo. The subjects inhaled the drug powder from capsules (see under C-1, e.g. tables 22 and 23) inserted into a handheld inhalation device by one deep inhalative breath. The dry powder formulation of the drug is dispersed into the airstream and fine particles are transported into the deep parts of the lung where it is intended to cause a vasodilation of the blood vessels in PH patients for a substantial reduction of increased blood pressure in the central pulmonary blood vessels in PAH patients or other subtypes of PH. This effect cannot be shown in subjects with healthy lungs. In addition inhaled drug causes a dilation of the bronchial airways and thus also improves disease states of lung diseases in PH patients with pathological bronchoconstriction. This effect was measured via bodyplethysmography as reduction of Specific Airway Resistance in healthy subjects. After the deep inhalative breath the subjects hold breath for 2 seconds, so that the dry powder drug condenses from the airstream onto the surface of the deeper lung areas where it is deposited close to its site of intended pharmacological action. The drug dissolutes over the day and equilibrates the lung via lining fluid.
Drug activity in healthy men was controlled in the healthy subjects by analysing blood samples for cGMP, the immediate product of sGC pharmacological activation prior after the first and after the last drug inhalation of the 7 days treatment in comparison to measurements on the pretreatment day for all doses.

healthy male subjects = experiment: E-2.1 bodyplethysmography: total specific airway resistance (sRaw) in healthy male subjects; format: in vivo, human
Description: as §1, with “After the deep inhalative breath the subjects hold breath for 2 seconds, so that the dry powder drug condenses from the airstream onto the surface of the deeper lung areas where it is deposited close to its site of intended pharmacological action. The drug dissolutes over the day and equilibrates the lung via lining fluid.” left out

[1] = E-2.1 plasma concentrations over time after inhalation in healthy male subjects; format: in vivo, human; conditions: all doses administered
Description: as §1, with “After the deep inhalative breath the subjects hold breath for 2 seconds, so that the dry powder drug condenses from the airstream onto the surface of the deeper lung areas where it is deposited close to its site of intended pharmacological action. The drug dissolutes over the day and equilibrates the lung via lining fluid.” left out

[2] = Determination of thermal stability (solid, 7 days at 90° C., HPLC); format: physicochemical; conditions: HPLC peak areas
Description: Determination of thermal stability of comparative example 11:
0.3 mg of the comparative example 11 were solved in 0.1 ml dimethylsulfoxide and 0.4 ml acetonitrile. Then 1.0 ml water was added. For complete dissolution the HPLC vial was shaken and sonicated. This solution was immediately analyzed by HPLC (reference at t0). 0.3 mg of the test compound was weighed into another HPLC vial. The vial was capped and stored for 7 days in a heating block at 90° C.
After this time the vial was decapped and 0.1 ml dimethylsulfoxide and 0.4 ml acetonitrile were added to the stressed compound. Then 1.0 ml water was added. For complete dissolution the HPLC vial was shaken and sonicated. The sample was analyzed by HPLC (sample after 1 week). The peak areas in percentage are used for quantification.

Caco-2 cells = experiment: Caco-2 permeability test; format: in vitro ADME, human; conditions: 2 μM, 2 h at 37° C.
Description: E-3. Further Characterization E-3.1 Caco-2 Permeability Test
The in vitro permeation of a test compound across a Caco-2 cell monolayer is a well-established assay system to predict the permeability from the gastro-intestinal tract (1). The permeability of the compounds of the present invention in such Caco-2 cells was determined as described below:
Human caco-2 cells were seeded on 24-well insert plates and were allowed to grow for 14-16 days. For permeability studies, the test compounds were dissolved in DMSO and diluted to the final test concentration of 2 μM with transport buffer [Hanks' Buffered Salt Solution, Gibco/Invitrogen, further supplemented with glucose and HEPES]. For determination of the apical to basolateral permeability (PappA-B), the test compound solution was added to the apical side of the cell monolayer and transport buffer to the basolateral side of the monolayer; for determination of the basolateral to apical permeability (PappB-A), the test compound solution was added to the basolateral side of the cell monolayer and transport buffer to the apical side of the monolayer. Samples were taken from the donor compartment at the beginning of the experiment to confirm mass balance. After an incubation of 2 h at 37° C., samples were taken from both compartments. Samples were analyzed by LC-MS/MS, and the apparent permeability coefficients were calculated. Lucifer Yellow permeability was assayed for each cell monolayer to ensure cell monolayer integrity, and the permeability of Atenolol (low permeability marker) and Sulfasalazine (marker for active excretion) was determined for each batch as quality control.

[3] = Protein binding via Transil assay, rat plasma; format: in vitro ADME
Description: (§2) Protein Binding of Comparative Example 11 and Comparative Example 1 was Analyzed Via Transil Assay, Described Below.
(§3) The distribution of a test substance between Transil® (phosphatidylcholine lipid bilayers immobilized on silica beads) and plasma is a characteristic feature of any pharmaceutical compound and is dependent on its extent of binding to plasma proteins. By comparing the distribution between Transil® and buffer with the distribution between Transil® and plasma of any species of interest, the unbound fraction in the plasma of the respective animal species can be calculated in vitro. The respective plasma and buffer concentrations were determined via a radioactivity analysis. A detailed description of the method and its validation was published by Schuhmacher et al. (2).

[4] = Protein binding via Transil assay, dog plasma; format: in vitro ADME
Description: as §2, §3

[5] = Protein binding via Transil assay, monkey plasma; format: in vitro ADME
Description: as §2, §3

[6] = system: thromboxane and hypoxia challenged rats, pigs, and dogs; experiment: Disease relevant animal models (thromboxane and hypoxia challenged), inhaled application, PAP; format: in vivo
[7] = system: unilateral ventilated minipig model; experiment: Unilateral ventilated minipig model as a proxy of VQ-mismatch; format: in vivo; conditions: inhaled application

O=C(O)c1ccc(CCN(CCc2ccccc2OCc2ccc(-c3ccc(C(F)(F)F)cc3)cc2Cl)[C@H]2CCCc3nc(C(=O)O)ccc32)cc1 [example 2, (5S)—{[2-(4-Carboxyphenyl)ethyl][2-(2-{[3-chloro-4′-(trifluoromethyl)biphenyl-4-yl]methoxy}phenyl)-ethyl]amino}-5,6,7,8-tetrahydroquinoline-2-carboxylic acid as Monohydrate II]
cGMP over time (mean) (sGC; 480 μg, 8 D 00 H 00 M): 7.20 ± 3.23 nmol/L | cGMP over time (mean) (sGC; 480 μg, 8 D 12 H 00 M): 6.20 ± 2.00 nmol/L | cGMP over time (mean) (sGC; 480 μg, −0 D 09 H 00 M): 5.60 ± 1.08 nmol/L | cGMP over time (mean) (sGC; 480 μg, −1 D 02 H 00 M): 5.40 ± 1.41 nmol/L | cGMP over time (mean) (sGC; 1000 μg, 5 D 00 H 00 M): 8.50 ± 2.13 nmol/L | cGMP over time (mean) (sGC; 1000 μg, −0 D 22 H 00 M): 5.10 ± 1.46 nmol/L | cGMP over time (mean) (sGC; 2000 μg, 2 D 00 H 00 M): 6.40 ± 2.09 nmol/L | cGMP over time (mean) (sGC; 2000 μg, 3 D 00 H 00 M): 10.00 ± 3.51 nmol/L | cGMP over time (mean) (sGC; 2000 μg, 8 D 00 H 00 M): 16.00 ± 5.77 nmol/L | cGMP over time (mean) (sGC; 2000 μg, 9 D 12 H 00 M): 9.40 ± 3.10 nmol/L | peak mean±SD cGMP value (sGC; first profile day, 1000 μg inhaled): 11.69 ± 1.86 nmol/L | total specific airway resistance (healthy male subjects; 480 μg, 0 D 06 H 00 M): 0.800 ± 0.187 kPa/sec | total specific airway resistance (healthy male subjects; 2000 μg, 7 D 06 H 00 M): 0.730 ± 0.151 kPa/sec | persistence of measurable plasma concentration after first inhalation [1]: 48 h

O=C(O)c1ccc(CCN(CCc2ccccc2OCc2ccc(-c3ccc(C(F)(F)F)cc3)cc2Cl)[C@H]2CCCc3nc(C(=O)O)ccc32)cc1 [comparative example 11, (5S)-5-{[2-(4-carboxyphenyl)ethyl][2-(2-{[3-chloro-4′-(trifluoromethyl)[biphenyl]-4-yl]methoxy}phenyl)ethyl]amino}-5,6,7,8-tetrahydroquinoline-2-carboxylic acid]
thermal stability [2]: stable | efflux ratio (Caco-2 cells): does not show an efflux ratio | fraction unbound, times lower than comparative example 1 [3]: 1.6 times | fraction unbound, times lower than comparative example 1 [4]: 10 times | free fraction, times lower than comparative example 1 [5]: 2 times | effect on elevated PAP [6]: selectively decreased elevated PAP | effect on PAP and oxygenation [7]: lowered PAP without negative effects on oxygenation
